Target: T1, MMP-1 (Homo sapiens, UniProt P03956)
T1 construct: La proMMP-1 recombinante (75 ng/mL) est activée par l'APMA
T1 sequence (P03956 100-469): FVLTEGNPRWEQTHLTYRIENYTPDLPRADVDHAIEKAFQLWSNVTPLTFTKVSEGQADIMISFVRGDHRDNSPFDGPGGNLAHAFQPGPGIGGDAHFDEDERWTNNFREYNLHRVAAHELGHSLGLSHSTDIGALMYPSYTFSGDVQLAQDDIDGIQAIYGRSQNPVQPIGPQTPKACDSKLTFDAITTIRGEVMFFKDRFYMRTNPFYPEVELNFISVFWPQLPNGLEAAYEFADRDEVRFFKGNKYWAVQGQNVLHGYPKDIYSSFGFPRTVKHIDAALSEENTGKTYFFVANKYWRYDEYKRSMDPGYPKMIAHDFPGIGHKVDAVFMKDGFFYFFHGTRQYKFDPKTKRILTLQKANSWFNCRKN
Assay: MMP-1 activity on fluorescent synthetic substrate (FRET)
Format: biochemical
Excerpt: La mesure de l'activité enzymatique des MMPs est basée sur le principe du transfert d'énergie par résonance, RET ou transfert d'énergie de fluorescence par résonance, FRET. Le substrat est constitué d'un oligopeptide comportant un groupement fluorescent (F), donneur d'énergie et un groupement éteignant (Q, pour quenching), accepteur d'énergie. Après hydrolyse, le groupement éteignant est libéré, permettant de mesurer l'augmentation de fluorescence.
De nombreux couples fluorescent/éteignant ont été développés pour la mesure de l'activité enzymatique des MMPs comme le couple 7-méthoxycoumarine-4-acétyl (Mca)/dinitrophenyl-diaminopropionyl (Dnp).
Après activation, la MMP-1 est pré-incubée à +20°C pendant 10 minutes en absence ou en présence d'effecteurs dans un tampon Tris-HCl 50 mM, NaCl 150 mM, CaCl2 5 mM pH 7,5 en plaque 96 puits noire dont les sites de liaisons non-spécifiques ont été bloqués à l'aide d'une solution de SAB à 0,1% (p/v) dans le même tampon. La réaction est initiée par addition de 10 µL de substrat à la concentration finale de 2 µM dans un volume réactionnel final de 200 µL. Les variations de fluorescence (λ excitation : 360 nm, λ émission : 465 nm) au cours du temps sont suivies à l'aide d'un spectrofluorimètre lecteur de plaque HTS 7000+ à +20°C. La courbe représentant la fluorescence (en RFU) en fonction du temps (en minutes) est tracée.
Les intensités de fluorescence obtenues permettent d'estimer là vitesse initiale de l'enzyme en absence d'effecteur (V0) et en présence d'inhibiteur (Vi). […]
La proMMP-1 recombinante (75 ng/mL) est activée par l'APMA (Acide Phényl Mercurique Acétate). […] Le clivage de ce substrat est estimé par mesure de la fluorescence libérée (λexc = 360 nm; λem = 465 nm) à l'aide d'un spectrofluorimètre lecteur de plaques de type Perkin Elmer HTS 7000 Plus. Les intensités de fluorescence obtenues permettent d'estimer la vitesse initiale de l'enzyme en l'absence d'effecteur (Vo) et en présence d'inhibiteur (Vi). […]

inhibition at 25 µg/mL (25 µg/mL, read-out: Inhibition de MMP-1 (%)): 42 ± 0.87%
Action sur l'activité de la MMP-1 (Vi/V0) à isoconcentration (at isoconcentration): 168
Augmentation d'activité (inhibition of type I collagenase, increase from one fractionation step to the next): 2,72
Structure (SMILES): CCCCC/C=C\C/C=C\CCCCCCCCOC[C@H](CO[C@@H]1O[C@H](COC(=O)CCCCCCCCCCCCCCC)[C@H](O)[C@H](O)[C@H]1O)OCCCCCCCC/C=C\C/C=C\CCCCC [ED23-11, 1,2-di-O-linoléyl-3-O-[6'-O-palmitoyl-β-D-galactopyranosyl]-sn-glycérol]
